From patent US20230201209A1, “PHARMACEUTICAL COMPOSITION FOR PREVENTING OR TREATING CANCER CONTAINING ANTIVIRAL AGENT AND ANTIDEPRESSANT AS ACTIVE INGREDIENTS” (FRONTBIO INC., priority 2020, published 2023)
Like-named read-outs stand apart in the source and are kept apart here.

Tested on: various cancer cells
Experiment: MTT analysis, summary statements on various cancer cells
Format: cell-based
Description: Specifically, ASPC-1 cell line, which is a pancreatic cancer cell line, and HCT116 cell line, which is a colon cancer cell line, was incubated in a 100 mm culture dish using DMEM-10% FBS under 5% CO2 at 37° C., inoculated into each well of a 96-well plate at 20% confluence, and incubated for 24 hours. The incubated cell lines were treated with efavirenz at a concentration of 2 μM and fluoxetine at a concentration of 2 μM alone or in combination and cultured in a CO2 incubator for 24 hours. The culture medium was removed from each well, 100 pl of a fresh culture medium was added, and 10 μl of a 12 mM MTT stock solution (5 mg MTT/PBS) was added, and incubation was performed at 37° C. for 2 hours. Thereafter, 100 pl of SDS-HCl solution (1 g SDS/10 ml 0.01 M HCl), which was a reaction terminating solution, was added, incubation was performed at 37° C. for 4 hours, and OD was measured at 570 nm using a microplate leader. Percentage (%) growth inhibition was calculated by comparing the OD thus measured to the OD of the cells not treated with drugs.

[1] = treated singly or in a complex, mixed or combined manner, MTT analysis

SMILES | growth inhibitory effect in cancer cells [1] | growth inhibitory effect in cancer cells
COC(=O)N[C@H](C(=O)N[C@@H](Cc1ccccc1)[C@@H](O)CN(Cc1ccc(-c2ccccn2)cc1)NC(=O)[C@@H](NC(=O)OC)C(C)(C)C)C(C)(C)C [atazanavir] | a growth inhibitory effect is exerted | –
O=C1Nc2ccc(Cl)cc2[C@@](C#CC2CC2)(C(F)(F)F)O1 [efavirenz] | a growth inhibitory effect is exerted | –
CN(C)CCC=C1c2ccccc2CCc2ccccc21 [amitriptyline] | a growth inhibitory effect is exerted | –
CNCCCC12CCC(c3ccccc31)c1ccccc12 [maprotyline, maprotiline] | a growth inhibitory effect is exerted | –
Clc1ccc2c(c1)C(N1CCNCC1)=Nc1ccccc1O2 [amoxapine] | a growth inhibitory effect is exerted | –
COCCCC/C(=N\OCCN)c1ccc(C(F)(F)F)cc1 [fluvoxamine] | a growth inhibitory effect is exerted | –
CNCCC(Oc1ccc(C(F)(F)F)cc1)c1ccccc1 (centres unmarked) [fluoxetine] | a growth inhibitory effect is exerted | –
CNCCC=C1c2ccccc2CCc2ccccc21 [nortriptyline] | a growth inhibitory effect is exerted | –
CN(C)C(=N)NC(=N)N [metformin] | a growth inhibitory effect is exerted | –
CC(CN(C)C)CN1c2ccccc2CCc2ccccc21 (centres unmarked) [trimipramine] | a growth inhibitory effect is exerted | –
Fc1ccc([C@@H]2CCNC[C@H]2COc2ccc3c(c2)OCO3)cc1 [paroxetine] | a growth inhibitory effect is exerted | –
CNCCCC1c2ccccc2C=Cc2ccccc21 [protriptyline] | a growth inhibitory effect is exerted | –
CN(C)CCC=C1c2ccccc2C(C)(C)c2ccccc21 [melitracene, melitracen] | a growth inhibitory effect is exerted | –
CNCC[C@H](Oc1cccc2ccccc12)c1cccs1 [duloxetine] | – | a growth inhibitory effect is exerted
CNCCCN1c2ccccc2CCc2ccccc21 [desipramine] | a growth inhibitory effect is exerted | –
Cc1cc(C#N)cc(C)c1Oc1nc(Nc2ccc(C#N)cc2)nc(N)c1Br [etravirine] | a growth inhibitory effect is exerted | –
CN(C)CCCN1c2ccccc2CCc2ccc(Cl)cc21 [clomipramine] | a growth inhibitory effect is exerted | –
CC(C)c1nc(CN(C)C(=O)N[C@H](C(=O)N[C@@H](Cc2ccccc2)C[C@H](O)[C@H](Cc2ccccc2)NC(=O)OCc2cncs2)C(C)C)cs1 [ritonavir] | a growth inhibitory effect is exerted | –
CC(C)CN(C[C@@H](O)[C@H](Cc1ccccc1)NC(=O)O[C@H]1CO[C@H]2OCC[C@H]21)S(=O)(=O)c1ccc(N)cc1 [darunavir] | – | a growth inhibitory effect is exerted
Cc1cccc(C)c1OCC(=O)N[C@@H](Cc1ccccc1)[C@@H](O)C[C@H](Cc1ccccc1)NC(=O)[C@H](C(C)C)N1CCCNC1=O [lopinavir] | a growth inhibitory effect is exerted | –
